This experiment has as its target tau (Homo sapiens, UniProt P10636). In words: MCE Phenols Library screening, tau biosensor cell seeding assay (AvZ). Type of experiment: cell-based. To be noted: for AvZ (average z score of seeding, SDs from the mean level of seeding): 10 μM phenol in cell cultures, AD brain homogenate preincubated 16 hours, two biological replicates, positive = catalyzes seeding, negative = inhibits; for Z repl 1 / Z Repl 2: Z score; for Z repl 1 / raw data 1: replicate 1; for Z Repl 2 / raw data 2: replicate 2.

The mark [1] stands for this setting: average Z score of the two replicates, MCE Phenols Library screen.
[2] abbreviates: average puncta of the two replicates.
[3] abbreviates: average Z score of the two replicates, tau biosensor seeding, MCE Phenols Library screen.
Setting [4] is: average Z score of two replicates, Phenols Library screen.

tau, sequence (P10636 623-695 limits assumed): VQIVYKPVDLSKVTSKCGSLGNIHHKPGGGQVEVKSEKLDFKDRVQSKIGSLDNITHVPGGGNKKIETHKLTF

With `OCCc1ccc(O)cc1` [Tyrosol], the “AvZ (average z score of seeding, SDs from the mean level of seeding)” value (“AvZ” below) worked out at 0.05; the “Z repl 1” value was -0.193; the “Z Repl 2” value is given as 0.294. For the setting “average of raw data 1 and 2”, this compound displayed an av puncta of 19965.6. For the same compound, where the note is “puncta”, the “raw data 1” value is on record as 24027 and the “raw data 2” value is on record as 15904.1.

With `O=c1ccc2ccc(O)cc2o1` [Umbelliferone], the “Z repl 1” value was -1.269 and the “Z Repl 2” value is -0.533. Moreover, under setting [1], the “av Z” value is -0.901. In addition, the av puncta (average of raw data 1 and 2) is recorded as 9095.02. Further, under “puncta”, the “raw data 1” value is recorded as 11115.4 and the “raw data 2” value is 7074.65.

In the case of `O=c1oc2cc(O)ccc2c2cc(O)c(O)cc12` [Urolithin C], the “Z repl 1” value is on record as -0.755 and the “Z Repl 2” value was -0.316. The “av Z” value under setting [1] was -0.535. The av puncta under setting [2] turned out to be 13342.4. In addition, for the setting “puncta”, the “raw data 1” value was found to be 17290 and the “raw data 2” value worked out at 9394.79.

For the compound `CC(=O)c1c(O)c(C)c(O)c2c1OC1=CC(=O)C(C(C)=O)C(=O)C12C` (stereo not shown) [Usnic acid], the “Z repl 1” value turned out to be 1.459 and the “Z Repl 2” value is reported as 0.735. The “av Z” value under setting [3] was determined as 1.097. The same compound displayed an av puncta (average of raw data 1 and 2) of 32238.5. Also, where the note is “puncta”, the “raw data 1” value is 43858.6 and the “raw data 2” value is 20618.4.

On to `COc1cc(CO)ccc1O` [Vanillyl alcohol], for which the “AvZ” value is reported as -0.269; the “Z repl 1” value amounted to 0.198; the “Z Repl 2” value was -0.736. Under setting [2], the av puncta is 16813.8. For the setting “raw puncta”, the “raw data 1” value worked out at 28727.3 and the “raw data 2” value was 4900.36.

Regarding `COc1cc(CC(=O)C(=O)O)ccc1O` [Vanilpyruvic acid], the “AvZ” value was -0.352; the “Z repl 1” value is listed as 0.039; the “Z Repl 2” value is -0.742. The compound also had an av puncta under setting [2] of 15824.3. Also, where the note is “raw puncta”, the “raw data 1” value is listed as 26811.5 and the “raw data 2” value amounted to 4837.1.

As to `C[C@@H]1O[C@@H](O[C@@H]2[C@@H](O)[C@H](OCCc3ccc(O)c(O)c3)O[C@H](CO)[C@H]2OC(=O)/C=C/c2ccc(O)c(O)c2)[C@H](O)[C@H](O)[C@H]1O` [Verbascoside], the “Z repl 1” value is -0.258 and the “Z Repl 2” value was -1.055. In addition, the “av Z” value under setting [1] is on record as -0.656. Under setting [2], this compound gave an av puncta of 12378.6. Under “puncta”, the “raw data 1” value was 23255.9 and the “raw data 2” value is 1501.28.

Regarding `O=c1cc(-c2ccc(O)cc2)oc2c([C@@H]3O[C@H](CO)[C@@H](O)[C@H](O)[C@H]3O)c(O)c([C@@H]3OC[C@@H](O)[C@H](O)[C@H]3O)c(O)c12` [Vicenin-1], the “Z repl 1” value was 0.022 and the “Z Repl 2” value is -0.802. Under setting [1], the “av Z” value is on record as -0.39. Under setting [2], the av puncta is reported as 15407.7. In addition, where the note is “raw puncta”, the “raw data 1” value came to 26610.5 and the “raw data 2” value is 4204.9.

As to `C[C@@H]1O[C@@H](Oc2cc(O)c3c(=O)c(O)c(-c4ccc(O)c(O)c4)oc3c2)[C@H](O)[C@H](O)[C@H]1O` [Vincetoxicoside B], the “Z repl 1” value is reported as -0.893 and the “Z Repl 2” value is -0.479. For the same compound, the “av Z” value under setting [1] was -0.686. For the same compound, the av puncta under setting [2] is on record as 11642.8. For the setting “puncta”, the “raw data 1” value is reported as 15632.1 and the “raw data 2” value was found to be 7653.58.

With `C[C@@H]1O[C@@H](O[C@@H]2[C@@H](O)[C@H](O)[C@@H](CO)O[C@H]2c2c(O)cc(O)c3c(=O)cc(-c4ccc(O)cc4)oc23)[C@H](O)[C@H](O)[C@H]1O` [Vitexin-2"-O-rhamnoside], the “Z repl 1” value was 0.246 and the “Z Repl 2” value was -0.753. Also, the “av Z” value under setting [1] was -0.253. Also, the av puncta under setting [2] was found to be 17015.1. In addition, for the setting “raw puncta”, the “raw data 1” value is 29301.6 and the “raw data 2” value was determined as 4728.59.

As for `O=c1cc(-c2ccc(O)cc2)oc2c([C@@H]3O[C@H](CO)[C@@H](O[C@@H]4O[C@H](CO)[C@@H](O)[C@H](O)[C@H]4O)[C@H](O)[C@H]3O)c(O)cc(O)c12` [Vitexin-4''-O-glucoside], the “Z repl 1” value was determined as 0.632 and the “Z Repl 2” value is recorded as -0.232. In addition, the “av Z” value (average Z score of the two replicates, tau seeding) is recorded as 0.2. Where the note is “average of raw data 1 and 2”, this compound came in with an av puncta of 22113. Also, for the setting “puncta”, the “raw data 1” value is 33940.8 and the “raw data 2” value amounted to 10285.2.

Turning to `COc1cc(O)c2c(c1)oc(=O)c1c3cc(O)c(O)cc3oc21` [Wedelolactone], the “Z repl 1” value is -0.852 and the “Z Repl 2” value is reported as -1.136. The “av Z” value under setting [1] is reported as -0.994. The compound also yielded an av puncta (average of raw data 1 and 2) of 8376. Under “puncta”, the “raw data 1” value is given as 16120.2 and the “raw data 2” value is 631.756.

Consider `COc1c(O)cc(O)c2c(=O)cc(-c3ccccc3)oc12` [Wogonin], for which the “Z repl 1” value was 0.851 and the “Z Repl 2” value is on record as 1.113. Under setting [3], the “av Z” value was 0.982. Further, the av puncta (average of raw data 1 and 2) is listed as 30607.4. Moreover, under “puncta”, the “raw data 1” value was 36560.6 and the “raw data 2” value stood at 24654.2.

On to `COc1c(O[C@@H]2O[C@H](C(=O)O)[C@@H](O)[C@H](O)[C@H]2O)cc(O)c2c(=O)cc(-c3ccccc3)oc12` [Wogonoside], for which the “Z repl 1” value is on record as -0.039 and the “Z Repl 2” value is listed as -0.756. The “av Z” value under setting [1] is -0.398. Moreover, under setting [2], the av puncta amounted to 15284.9. Besides, where the note is “raw puncta”, the “raw data 1” value is recorded as 25879 and the “raw data 2” value is reported as 4690.87.

Regarding `COc1ccc(-c2oc3c(CCC(C)(C)O)c(O)cc(O)c3c(=O)c2O)cc1` [Wushanicaritin], the “Z repl 1” value is -0.889 and the “Z Repl 2” value was -0.335. Further, the “av Z” value under setting [1] is given as -0.612. Moreover, the av puncta under setting [2] is recorded as 12429.8. Further, for the setting “puncta”, the “raw data 1” value was determined as 15671.6 and the “raw data 2” value is 9188.09.

Regarding `COc1cc(O)c(C(C)=O)c(OC)c1` [Xanthoxylin], the “AvZ” value is recorded as 0.65; the “Z repl 1” value was 0.422; the “Z Repl 2” value is 0.877. The av puncta (average of raw data 1 and 2) amounted to 26774.2. For the setting “puncta”, the “raw data 1” value amounted to 31416.6 and the “raw data 2” value came to 22131.8.

As for `O=C(O)c1cc(O)c2cccc(O)c2n1` [Xanthurenic acid], the “Z repl 1” value turned out to be 0.734 and the “Z Repl 2” value is recorded as 1.586. Further, the “av Z” value under setting [3] came to 1.16. Also, the av puncta (average of raw data 1 and 2) worked out at 32429.6. Besides, under “puncta”, the “raw data 1” value turned out to be 35156.1 and the “raw data 2” value stood at 29703.1.

For the compound `C[C@H]1CCCC(=O)CCCCCc2cc(O)cc(O)c2C(=O)O1` [Zearalanone], the “Z repl 1” value worked out at 0.089 and the “Z Repl 2” value is -0.477. The “av Z” value under setting [4] is on record as -0.194. Under “average of raw data 1 and 2”, this compound gave an av puncta of 17549.1. Also, where the note is “puncta”, the “raw data 1” value is on record as 27422.4 and the “raw data 2” value is on record as 7675.78.

`C[C@H]1CCCC(=O)CCC/C=C/c2cc(O)cc(O)c2C(=O)O1` [Zearalenone]: the “Z repl 1” value is given as -0.335 and the “Z Repl 2” value was 0.423. Moreover, the “av Z” value under setting [4] was 0.044. The compound further came in with an av puncta (average of raw data 1 and 2) of 19802.8. Under “puncta”, the “raw data 1” value was determined as 22326 and the “raw data 2” value amounted to 17279.6.

On to `CCCCC[C@H](O)CC(=O)CCc1ccc(O)c(OC)c1` [[6]-Gingerol], for which the “Z repl 1” value was found to be 0.385 and the “Z Repl 2” value was 0.874. The av puncta (average of raw data 1 and 2) is 26534.4. For the same compound, under “puncta”, the “raw data 1” value came to 30973.3 and the “raw data 2” value came to 22095.4.

Regarding `CCCCCCC/C=C/C(=O)CCc1ccc(O)c(OC)c1` [[8]-Shogaol], the “AvZ” value is given as -0.665; the “Z repl 1” value is recorded as -0.527; the “Z Repl 2” value was -0.802. This compound gave an av puncta under setting [2] of 12111.2. For the setting “puncta”, the “raw data 1” value was 20022.1 and the “raw data 2” value turned out to be 4200.38.

Turning to `CCCCCCCCC/C=C/C(=O)CCc1ccc(O)c(OC)c1` [[10]-Shogaol], the “Z repl 1” value is -0.951 and the “Z Repl 2” value is -0.064. For the same compound, under setting [2], the av puncta amounted to 13509. Where the note is “puncta”, the “raw data 1” value came out at 14936.2 and the “raw data 2” value amounted to 12081.7.

For `COc1cc2oc3cc(O)c(OC)c(CC=C(C)C)c3c(=O)c2c(O)c1CC=C(C)C` [beta-Mangostin], the “Z repl 1” value is given as -0.244 and the “Z Repl 2” value is -0.19. Moreover, under setting [1], the “av Z” value was -0.217. Under setting [2], this compound had an av puncta of 17083.5. For the same compound, where the note is “raw puncta”, the “raw data 1” value came out at 23425.5 and the “raw data 2” value is reported as 10741.6.

In the case of `O=C(O)C=Cc1ccc(O)cc1` [p-Coumaric acid], the “AvZ” value is recorded as -0.287; the “Z repl 1” value is on record as -0.724; the “Z Repl 2” value was 0.15. Further, the av puncta under setting [2] was found to be 16011.2. Further, where the note is “raw puncta”, the “raw data 1” value amounted to 17659.3 and the “raw data 2” value was 14363.1.

`O=C(O)C(O)c1ccc(O)cc1` (stereo not shown) [p-Hydroxymandelic acid]: the “AvZ” value is on record as 1.127; the “Z repl 1” value amounted to 0.77; the “Z Repl 2” value was 1.484. Further, the av puncta (average of raw data 1 and 2) amounted to 32106.2. Moreover, for the setting “puncta”, the “raw data 1” value turned out to be 35598.4 and the “raw data 2” value came to 28613.9.

For (+)-Usnic acid, the “Z repl 1” value is on record as 0.232 and the “Z Repl 2” value is listed as -0.478. For the same compound, the “av Z” value under setting [4] is given as -0.123. This compound also returned an av puncta (average of raw data 1 and 2) of 18398.3. Also, for the setting “puncta”, the “raw data 1” value was found to be 29133.2 and the “raw data 2” value amounted to 7663.33.

Alpinetin: the “Z repl 1” value is recorded as -0.059 and the “Z Repl 2” value is on record as -0.789. Further, the “av Z” value under setting [1] was -0.424. Under setting [2], this compound had an av puncta of 14986.7. Further, under “raw puncta”, the “raw data 1” value came out at 25635 and the “raw data 2” value is on record as 4338.39.

For the origin of these results see publication PMC11784839, “Monoaminergic neurotransmitters are bimodal effectors of tau aggregation” (Science Advances, 2025).
